A short description of series [1]: Serum 25-(OH)D3 (RIA) after 1×/month oral administration in rats with normal vitamin D status. The format is in vivo, rat. From the text: FIG. 1 is a bar graph showing exemplary elevations of serum 25-(OH)D3 levels occurring after 1×/month oral administration of 25-(OH)D3 at 9 and 100 mcg/kgBW in rats with normal vitamin D status. The rats were male, Sprague-Dawley rats (9 weeks of age, n=15) received from a commercial supplier, and the animals were placed on a purified diet containing 0.47% calcium and allowed to acclimate for one week. After one week the animals were randomly assigned to 3 groups, bled (0 d), and then orally dosed 1× every 28 days with vehicle (5% ethanol in Neobee oil) or 25-(OH)D3 dissolved in ethanol and Neobee oil. Blood was again collected 4 hr, 24 hr, and 1, 2, 3 and 4 weeks after each single, oral dose was administered, and, serum 25-(OH)D3 concentrations were assessed using a commercially available RIA kit (DiaSorin of Stillwater, Minn.). FIG. 1 also contains data taken after 6 months of dosing.
FIG. 5 is a bar graph illustrating the increases in serum 25(OH)D3 occurring after 1×/monthly oral administration of 25(OH)D3 at 1000 and 3000 mcg/kg body weight in rats with normal vitamin D status. The rats were male, Sprague-Dawley rats (9 weeks of age, n=4-6 animals/group) received from a commercial supplier. […] Blood was collected at the times indicated in the graph, and serum 25(OH)D3 concentrations were assessed using a commercially available RIA kit (DiaSorin of Stillwater, Minn.).

Series [2] is described as follows: Serum total calcium after 1×/month oral administration in rats with normal vitamin D status. Type of series: in vivo, rat. From the text: FIG. 2 is a bar graph showing no change in serum calcium occurring after […] oral administration of 25-(OH)D3 in rats with normal vitamin D status. The rats were male, Sprague-Dawley rats (9 weeks of age, n=15) received from a commercial supplier. The animals were placed on a purified diet containing 0.47% calcium and allowed to acclimate for one week. After one week the animals were randomly assigned to 3 groups, bled (0 d), and then orally dosed 1× every […] with vehicle (5% ethanol in Neobee oil) or 25-(OH)D3 dissolved in ethanol and Neobee oil. Blood was again collected 4 hr, 24 h, and 1, 2, 3 and 4 weeks after each single, oral dose was administered, and total calcium concentrations were assessed in the serum using atomic absorption spectrometry. FIG. 2 also contains data taken after the 6th and 10th monthly dose.
The rats were male, Sprague-Dawley rats (9 weeks of age, n=4-6 animals/group) received from a commercial supplier. The animals were placed on a purified diet containing 0.47% calcium and allowed to acclimate for one week. […] Total calcium concentrations were assessed in the serum using atomic absorption spectrometry or a clinical analyzer (Pentra 400, Horiba ABX Diagnostics—France).

Series [3] is described as follows: Serum 25-(OH)D3 (RIA) after 1×/month oral administration in vitamin D deficient rats. The format is in vivo, rat. From the text:
FIG. 3 is a bar graph showing exemplary elevations of serum 25-(OH)D3 levels occurring after 1×/month oral administration of 25-(OH)D3 at 1, 3, 9, 30 and 100 mcg/kgBW in vitamin D deficient rats. The rats were male, Sprague-Dawley rats (weanlings, n=30) received from a commercial supplier. The animals were placed in rooms that lacked light emissions in the UV range and were fed diets lacking any vitamin D, whereby at 10 weeks of age the animals were randomly assigned to 6 groups (n=5/group), bled (0 d), and then orally dosed 1× every 28 days with vehicle (5% ethanol in Neobee oil) or 25-(OH)D3 dissolved in ethanol and Neobee oil. Blood was again collected 4 hr, 24 hr, and 1, 2, 3 and 4 weeks after each single, oral dose was administered, and serum 25-(OH)D3 concentrations were assessed using a commercially available RIA kit (DiaSorin of Stillwater, Minn.). FIG. 3 includes data taken after the 6th and 10th monthly dose.
FIG. 7 is a bar graph illustrating the increases in serum 25(OH)D3 occurring after 1×/monthly oral administration of 25(OH)D3 at 1000 and 3000 mcg/kg body weight in vitamin D deficient rats. […] Blood was collected at the times indicated in the graph and serum 25(OH)D3 concentrations were assessed using a commercially available RIA kit (DiaSorin of Stillwater, Minn.).

Series [4] can be described thus: Serum total calcium after 1×/month oral administration in vitamin D-deficient rats. Type of series: in vivo, rat. From the text:
FIG. 4 is a bar graph showing no increase in serum Ca concentration levels above the normal range occurring after exemplary 1×/month oral administration of 25-(OH)D3 in vitamin D-deficient rats. The rats were male, Sprague-Dawley rats (weanlings, n=30) received from a commercial supplier. The animals were placed in rooms that lacked light emissions in the UV range and fed diets lacking vitamin D. At 10 weeks of age, the rats were randomly assigned to 6 groups (n=5/group), bled (0 d) and then orally dosed 1× every 28 days with vehicle (5% ethanol in Neobee oil) or 25-(OH)D3 dissolved in ethanol and Neobee oil, whereby blood was again collected 4 hr, 24 hr, and 1, 2, 3 and 4 weeks after each single, oral dose was administered. Total calcium concentrations were assessed in the serum using absorption spectrometry. FIG. 4 includes data out to 10 months of dosing.
The rats were male, Sprague-Dawley rats (weanlings, n=4-6/group) received from a commercial supplier. […] Blood was collected at the times indicated in the graph and total calcium concentrations were assessed in the serum using atomic absorption spectrometry or a clinical analyzer (Pentra 400, Horiba ABX Diagnostics—France).

Series [5] is described as follows: Serum 25(OH)D3 (RIA) after 1×/weekly oral administration in vitamin D deficient rats. Type of series: in vivo, rat. Conditions: FIG. 9, 1×/weekly oral, 100, 1000 and 3000 mcg/kg body weight. From the text: FIG. 9 is a bar graph illustrating the increases in serum 25(OH)D3 occurring after 1×/weekly oral administration of 25(OH)D3 at 100, 1000 and 3000 mcg/kg body weight in vitamin D deficient rats. The rats were male, Sprague-Dawley rats (weanlings, n=4-6/group) received from a commercial supplier. The animals were placed in rooms that lacked light emissions in the UV range. The animals were fed diets lacking any vitamin D, whereby at 10 weeks of age the animals were randomly assigned to 3 groups and then orally dosed 1× every 7 days with vehicle (5% ethanol in Neobee oil) or 25(OH)D3 dissolved in ethanol and Neobee oil. Blood was collected at the times indicated in the graph and serum 25(OH)D3 concentrations were assessed using a commercially available RIA kit (DiaSorin of Stillwater, Minn.).

The nature of series [6]: Serum total calcium after 1×/weekly oral administration in vitamin D deficient rats. Type of series: in vivo, rat. As to conditions: FIG. 10. From the text: The rats were male, Sprague-Dawley rats (weanlings, n=4-6/group) received from a commercial supplier. The animals were placed in rooms that lacked light emissions in the UV range. The animals were fed diets lacking any vitamin D. At 10 weeks of age the animals were randomly assigned to 3 groups, and then orally dosed 1× every 7 days with vehicle (5% ethanol in Neobee oil) or 25(OH)D3 dissolved in ethanol and Neobee oil. Blood was collected at the times indicated in the graph and total calcium concentrations were assessed in the serum using atomic absorption spectrometry or a clinical analyzer (Pentra 400, Horiba ABX Diagnostics—France).

The next series is described as follows: Solubility of 25-(OH)D3. Type of series: physicochemical. From the text: 25-(OH)D3 can exist in its free form or as a monohydrate. 25-(OH)D3 monohydrate is crystalline.
The conditions of series [7]: cited from earlier work.
For series [8] the following is noted: rat, in vivo; cited from earlier work.

Turning to `C=C1CC[C@H](O)C/C1=C/C=C1\CCCC2(C)[C@@H]([C@H](C)CCCC(C)(C)O)CC[C@@H]12` (stereo partly drawn) [25-(OH)D3, 25-hydroxy-vitamin D3], the “serum 25-(OH)D3 levels” value in series [1] (FIG. 1, 1×/month oral, 9 and 100 mcg/kgBW, rats with normal vitamin D status, up to 6 months of dosing) was “values return to baseline 4 weeks after the dose is administered”; in [3] (FIG. 3, 1×/month oral, 1, 3, 9, 30 and 100 mcg/kgBW, vitamin D deficient rats, up to 10th monthly dose), “values return to baseline 4 weeks after the dose is administered”. Also, the “serum 25(OH)D3 circulating levels” value in series [1] (FIG. 5, 1×/monthly oral, 1000 and 3000 mcg/kg body weight, D-sufficient rats) is “circulating levels higher than normal”; in series [3] (FIG. 7, 1×/monthly oral, 1000 and 3000 mcg/kg body weight, D-deficient rats), “circulating levels higher than normal”. For the same compound, the “serum calcium (hypercalcemia)” value in [2] (FIG. 2, 1×/month oral, up to 10 months) is recorded as “do not cause hypercalcemia”. Further, the serum calcium result is “no increase in serum calcium outside the normal range” in series [2] (FIG. 6, 1×/monthly oral, 1000 and 3000 mcg/kg body weight); “no increase in serum calcium outside the normal range” in [4] (FIG. 8, 1×/monthly oral, 1000 and 3000 mcg/kg body weight, vitamin D deficient rats); “no increase in serum calcium outside the normal range” in series [6]. Further, the “serum Ca concentration (hypercalcemia)” value in [4] (FIG. 4, 1×/month oral, vitamin D-deficient rats, up to 10 months) was “do not cause hypercalcemia”. In addition, the “blood levels of 25(OH)D3” value in series [5] is reported as “above the normal range without the large fluctuations”. Also, the solubility result in “Solubility of 25-(OH)D3” (organic solvents) is given as “soluble”; in “Solubility of 25-(OH)D3” (water) it was “relatively insoluble”. Also, the “time to peak 25-(OH)D3 concentrations in the serum” value in series [7] (administered orally) was “about 4 hours”. Moreover, in series [7] (human, in vivo), the “lifetime in the body” value was 25 to 32 days. In addition, the fraction absorbed in series [7] (orally administered, in man) was 62-77%. In addition, in series [7] (orally administered), the half-life is 12 to 23 days. Moreover, the “25-(OH)D3 levels with risk of causing a mild vitamin D intoxication” value in [8] is reported as “above 500 ng/ml”. Also, in [8], the “blood level concentration at which toxicity becomes a concern” value is reported as “greater than 450 ng/ml”.

The values are drawn from US8759328B2, “Once-a-week administration of 25-hydroxy vitamin D3 to sustain elevated steady-state pharmacokinetic blood concentration” (Wisconsin Alumni Research Foundation, priority 2008, dated 2014).
